This note sets out measurements from article PMC12042267, “Expanding the Family of Monosubstituted 15-Membered Pyridine-Based Macrocyclic Ligands for Mn(II) Complexation in the Context of MRI” (Inorganic Chemistry, 2025).

Series [1] is described as follows: Cyclic voltammetry of Mn(II) complexes in aqueous solution. Type of series: physicochemical. The following applies: aqueous 0.15 M KCl; for ΔE (peak separation): 100 mV s^–1; for Eox (oxidation peak) / Ered (reduction peak): 100 mV s^–1 scan rate; for Eox (oxidation peak) / Ered (reduction peak) / E1/2: vs Ag/AgCl. As for the experimental part:
All solvents (VWR International, Penta) and chemicals were purchased from commercial sources (Acros Organics, Merck) and used as received. 2-(Chloromethyl)pyridine hydrochloride and 2-(chloromethyl)benzimidazole were prepared according to the previously described procedures.[31],[32] The parent ligand 15-pyN3O2 was synthesized as previously described in the literature.[28],[33] Mass spectra were collected using an LCQ Fleet mass spectrometer (Thermo Scientific, Waltham, MA) equipped with an electrospray ion source and a three-dimensional (3D) ion-trap detector in the positive/negative mode (see SI, Figures S1 and S2). ^1H and ^13C NMR spectra were obtained using a 400-MR NMR spectrometer (Varian, Palo, Alto, CA) at 25 °C. The multiplicity of the signals is indicated as follows: s, singlet; d, doublet; t, triplet; m, multiplet; and bs, broad singlet. Deuterated solvent chloroform-d (99.9% of D) was purchased from Sigma-Aldrich and used as received. The atom numbering schemes used for the interpretation of NMR data are shown in Scheme 2. The carbon and hydrogen atoms were assigned according to the spectra obtained from the two-dimensional correlation experiments ^1H–^1H gs-COSY, ^1H–^13C gs-HMQC, and ^1H–^13C gs-HMBC (see SI, Figures S3–S10). Cyclic voltammetry was performed on a CHI600C electrochemical analyzer (CH Instruments, Inc., Austin, TX). IR spectra were measured on a Jasco FT/IR-4700 spectrometer (Jasco, Easton, MD) using the ATR technique on a diamond plate in the spectral range 4000–400 cm^–1 (see SI Figure S11). A conventional electrochemical three-electrode-type cell with a glassy carbon working electrode, a platinum wire auxiliary electrode, and either Ag/Ag^+ reference electrode (0.01 M AgNO3 in 0.1 M tetrabutylammonium perchlorate (TBAP) in CH3CN) or Ag/AgCl reference electrode filled with 3 M KCl solution was used during the measurements with the scan rate of 100 mV s^–1. The measurements were performed in an argon atmosphere either in 0.1 M TBAP solution in CH3CN or in 0.15 M aqueous solution of KCl as a supporting electrolyte with a scan rate of 100 mV s^–1 and at 1.5 mM concentration of the complexes. The internal ferrocene/ferrocenium standard (E1/2 = 0.459 V vs Ag/Ag^+ electrode, ΔE = 77 mV) was employed for measurements in CH3CN.
Thus, we carried out CV experiments on an aqueous solution of the Mn(II) complexes in 0.15 M KCl. […] The cyclic voltammogram of MnL3 is similar, showing an oxidation peak at Eox = +1004 mV and a reduction peak at Ered = 782 mV (E1/2 = 893 mV vs Ag/AgCl, ΔE = 222 mV) (Figure S23). The large separation between the oxidation and reduction peaks (ΔE) is characteristic of a quasi-reversible system. The irreversibility of the Mn(II)/Mn(III) redox process is quite common due to the lack of ligand-field stabilization for the high-spin d^5 configuration of Mn(II), with a consequent large inner-sphere contribution to electron transfer.[57] Even larger separation between the oxidation and reduction peaks was observed when the complexes were measured in acetonitrile (Figures S24 and S25 in SI).

Series [2] is described as follows: Simultaneous analysis of 17O NMR and 1H NMRD data (Solomon-Bloembergen-Morgan). Type of series: physicochemical. The protocol:
^1H NMRD profiles on aqueous solutions of MnL2 (cMn2+ = 0.98 mM; pH = 7.22) and MnL3 (cMn2+ = 0.96 mM; pH = 7.20) were recorded at 25 and 37 °C on a SMARTracer Fast Field Cycling NMR relaxometer (Stelar; 0.00024–0.24 T, 0.01–10 MHz ^1H Larmor frequency) and a WP80 NMR electromagnet adapted to variable-field measurements (Bruker; 0.47–1.88 T, 20–80 MHz ^1H Larmor frequency). The temperature was maintained by a gas flow and monitored by a VTC91 temperature control unit based on previous calibration with a Pt resistance temperature probe.
Variable-temperature ^17O NMR measurements of aqueous solutions of MnL2 (cMnL = 3.70 mmol·kg^–1, pH = 7.03) and MnL3 (cMnL = 3.72 mmol·kg^–1, pH = 7.2) were performed on a Bruker Avance III 400 MHz spectrometer (9.4 T, 54.2 MHz) in the temperature range 5–75 °C. The temperature was calculated after calibration with ethylene glycol and […]. Acidified water (HClO4, pH = 3.3) was used as a diamagnetic reference. The ^17O transverse relaxation times (T2) were obtained by using the CPMG spin–echo technique. To eliminate susceptibility contributions to the chemical shift, the sample was in a glass sphere placed in a 10 mm NMR tube. To improve the sensitivity, ^17O-enriched water (11.10% H2^17O, Cortecnet) was added to the solution to yield approximately 1% ^17O enrichment.
The ^17O NMR and NMRD data have been analyzed according to the Solomon–Bloembergen–Morgan theory of paramagnetic relaxation.[3] The least-squares fit was performed using Visualizeur/Optimiseur running on a MATLAB 8.3.0 (R2014a) platform.
^1H NMRD profiles were recorded at 25 and 37 °C in the magnetic field range 0.01–80 MHz (Figure 6, bottom). The reduced transverse ^17O relaxation rates were simultaneously fitted with ^1H NMRD data according to the Solomon–Bloembergen–Morgan theory (equations are given in SI). The fitted parameters are summarized in Table 6 and compared to those for seven-coordinate Mn(II) complexes of L1 and 15-pyN3O2 ligands, as well as of [Mn(H2O)6]^2+.
The shape of the ^1H NMRD curves reflects typical low-molecular-weight complexes. The profiles display one dispersion between 1 and 10 MHz as has been previously described for other complexes except [Mn(H2O)6]^2+.[49],[50] The hydration number of MnL2 and MnL3 was assumed in both cases to be q = 1 for a total coordination number of CN = 7, based on the X-ray crystal structure. In aqueous solution, the chloride or the acetonitrile that coordinates to Mn(II) in the solid state will be replaced by one water molecule to complete the coordination sphere of Mn(II). As it was described by Gale et al.,[51] the ^17O T2 values can also give an estimate of hydration number, provided the 1/T2r vs temperature curve has a maximum. This approach is not applicable for MnL2 and MnL3 since both systems are in the slow exchange regime in the entire temperature range studied. The lack of a fast exchange regime prevents the fit of the scalar coupling constant, A0/ℏ, as well which was therefore fixed to 38.6 MHz.[28]

Each structure is given as a SMILES string.

As to `O.[Mn+2].c1ccc(CN2CCOCCOCCNCc3cccc(n3)C2)nc1` [MnL2], in series [1], the “ΔE (peak separation)” value is 144 mV, the “Eox (oxidation peak)” value is reported as “+994 mV”, the “Ered (reduction peak)” value is reported as “+850 mV” and the E1/2 amounted to 922 mV. Moreover, in series [2], the “ErH (activation energy for the rotational motion)” value was found to be 15.0 ± 0.5 kJ mol^–1, the “kex^298 (water exchange rate constant)” value is 0.46 × 10^7 s^–1, the “kex^298 (water exchange rate)” value was 0.46 ± 0.02 10^7 s^–1 and the “ΔH^‡ (activation enthalpy for the water exchange)” value is recorded as 28.7 ± 1.36 kJ mol^–1. Also, in series [2], the “ΔS^‡ (activation entropy for the water exchange)” value is reported as “–21 ± 5 J mol^–1K^–1”, the “Δ^2 (trace of the square of the transient ZFS tensor)” value is given as 164 ± 10 10^18 s^–2, the “τrH^298 (rotational correlation time)” value worked out at 35 ± 4 ps and the “τv^298 (correlation time for modulation of ZFS)” value was 8 ± 1 ps.

With `O.[Mn+2].c1cc2nc(c1)CN(Cc1nc3ccccc3[nH]1)CCOCCOCCNC2` [MnL3], in series [1], the “ΔE (peak separation)” value is reported as 222 mV, the “Eox (oxidation peak)” value was “+1004 mV”, the “Ered (reduction peak)” value is listed as 782 mV and the E1/2 came to 893 mV. Also, in series [2], the “ErH (activation energy for the rotational motion)” value turned out to be 15.0 ± 0.5 kJ mol^–1, the “kex^298 (water exchange rate constant)” value was 0.23 × 10^7 s^–1, the “kex^298 (water exchange rate)” value is recorded as 0.23 ± 0.02 10^7 s^–1 and the “ΔH^‡ (activation enthalpy for the water exchange)” value worked out at 28.5 ± 2.5 kJ mol^–1. Moreover, in series [2], the “ΔS^‡ (activation entropy for the water exchange)” value is listed as “–27 ± 7 J mol^–1K^–1”, the “Δ^2 (trace of the square of the transient ZFS tensor)” value is 100 ± 10 10^18 s^–2, the “τrH^298 (rotational correlation time)” value came to 45 ± 2 ps and the “τv^298 (correlation time for modulation of ZFS)” value stood at 13 ± 3 ps.
